Where a SMILES comes first, the peptide text is derived from it. Bridges are numbered along the chain shown (N, C = ends).
These molecules were tested against human α7-containing nAChRs (Homo sapiens, UniProt P36544) (assay: cell-based). Conditions: SEM.
Format: cell-based

Chain of human α7-containing nAChRs (P36544 23-502 limits assumed): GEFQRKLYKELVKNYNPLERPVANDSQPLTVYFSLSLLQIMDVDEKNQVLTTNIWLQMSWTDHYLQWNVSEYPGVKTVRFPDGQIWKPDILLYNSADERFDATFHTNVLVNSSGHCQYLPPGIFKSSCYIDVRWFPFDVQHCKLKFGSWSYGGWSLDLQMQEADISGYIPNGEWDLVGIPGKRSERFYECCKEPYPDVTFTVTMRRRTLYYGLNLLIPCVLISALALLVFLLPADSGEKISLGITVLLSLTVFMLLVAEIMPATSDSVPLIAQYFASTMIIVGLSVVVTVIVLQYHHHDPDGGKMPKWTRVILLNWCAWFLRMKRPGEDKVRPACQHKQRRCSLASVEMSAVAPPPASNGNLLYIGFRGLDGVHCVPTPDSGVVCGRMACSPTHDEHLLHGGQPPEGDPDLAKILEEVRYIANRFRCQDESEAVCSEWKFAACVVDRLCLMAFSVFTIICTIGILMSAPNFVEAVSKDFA

| Compound | IC50 |
| --- | --- |
| CC[C@H](C)[C@@H]1NC(=O)[C@H](CC(N)=O)NC(=O)[C@@H]2CCCN2C(=O)[C@H](CC(N)=O)NC(=O)[C@H](CC(N)=O)NC(=O)[C@H](C(C)C)NC(=O)[C@H](CCCNC(=N)N)NC(=O)[C@@H]2CSSC[C@H](NC(=O)CNC(=O)[C@@H](N)CO)C(=O)N[C@@H](CSSC[C@@H](C(N)=O)NC1=O)C(=O)N[C@@H](CO)C(=O)N[C@@H](CC(N)=O)C(=O)N1CCC[C@H]1C(=O)N[C@@H](C)C(=O)N2 [gLsIA, reference compound] (H-SGCCSNPACRVNNPNIC-NH2; disulfide 3-9, 4-17) | 0.3 ± 0.063 µM |
| CC[C@H](C)[C@@H]1NC(=O)[C@@H]2CSSC[C@H](NC(=O)[C@@H](NC(=O)CN)CSSC[C@@H](C(N)=O)NC(=O)[C@H](CC(C)C)NC(=O)[C@H](CC(=O)O)NC(=O)[C@@H]3CCCN3C(=O)[C@H](CC(N)=O)NC(=O)[C@H](CC(N)=O)NC(=O)[C@H](CC(C)C)NC1=O)C(=O)N[C@@H](CO)C(=O)N[C@@H](C)C(=O)N[C@@H](CCCNC(=N)N)C(=O)N1CCC[C@H]1C(=O)N1CCC[C@H]1C(=O)N2 [rTxIA[∇A5 A10L]] (H-GCCSARPPCILNNPDLC-NH2; disulfide 2-17, 3-9) | 39 ± 10.3 µM |
| CC[C@H](C)[C@@H]1NC(=O)[C@@H]2CSSC[C@H](NC(=O)CN)C(=O)N[C@@H](CSSC[C@@H](C(N)=O)NC(=O)[C@H](CC(C)C)NC(=O)[C@H](CC(=O)O)NC(=O)[C@@H]3CCCN3C(=O)[C@H](CC(N)=O)NC(=O)[C@H](CC(N)=O)NC(=O)[C@H](CC(C)C)NC1=O)C(=O)N[C@@H](CO)C(=O)N[C@@H](C)C(=O)N[C@@H](CCCNC(=N)N)C(=O)N1CCC[C@H]1C(=O)N1CCC[C@H]1C(=O)N2 [gTxIA[∇A5 A10L]] (H-GCCSARPPCILNNPDLC-NH2; disulfide 2-9, 3-17) | 18 ± 4 µM |
| CC(C)[C@H](NC(=O)[C@@H]1CSSC[C@H](NC(=O)[C@@H](N)CO)C(=O)N[C@H]2CSSC[C@H](NC(=O)[C@H](C)NC(=O)[C@@H]3CCCN3C(=O)[C@H](CC(N)=O)NC(=O)[C@H](CCCNC(=N)N)NC(=O)[C@H](C)NC2=O)C(=O)N[C@@H](CCCNC(=N)N)C(=O)N[C@@H](Cc2c[nH]cn2)C(=O)N[C@@H](CC(N)=O)C(=O)N[C@@H](Cc2c[nH]cn2)C(=O)N2CCC[C@H]2C(=O)N1)C(N)=O [rAusIA] (H-SCCARNPACRHNHPCV-NH2; disulfide 2-15, 3-9) | 26 ± 5 µM |
| CC[C@H](C)[C@@H]1NC(=O)[C@@H]2CSSC[C@H](NC(=O)[C@@H](NC(=O)CN)CSSC[C@@H](C(N)=O)NC(=O)[C@H](CC(C)C)NC(=O)[C@H](CC(=O)O)NC(=O)[C@@H]3CCCN3C(=O)[C@H](CC(N)=O)NC(=O)[C@H](CC(N)=O)NC(=O)[C@H](CC(C)C)NC1=O)C(=O)N[C@@H](CO)C(=O)N[C@@H](CCCNC(=N)N)C(=O)N1CCC[C@H]1C(=O)N1CCC[C@H]1C(=O)N2 [rTxIA [A10L], reference compound] (H-GCCSRPPCILNNPDLC-NH2; disulfide 2-16, 3-8) | 6 ± 0.123 µM |
| CC[C@H](C)[C@@H]1NC(=O)[C@H](CC(N)=O)NC(=O)[C@@H]2CCCN2C(=O)[C@H](CC(N)=O)NC(=O)[C@H](CC(N)=O)NC(=O)[C@H](C(C)C)NC(=O)[C@H](CCCNC(=N)N)NC(=O)[C@@H]2CSSC[C@H](NC(=O)[C@@H](NC(=O)CNC(=O)[C@@H](N)CO)CSSC[C@@H](C(N)=O)NC1=O)C(=O)N[C@@H](CO)C(=O)N[C@@H](CC(N)=O)C(=O)N1CCC[C@H]1C(=O)N[C@@H](C)C(=O)N2 [rLsIA, reference compound] (H-SGCCSNPACRVNNPNIC-NH2; disulfide 3-17, 4-9) | 41 ± 3.4 µM |
| CC(C)[C@H](NC(=O)[C@@H]1CSSC[C@@H]2NC(=O)[C@@H](NC(=O)[C@@H](N)CO)CSSC[C@H](NC(=O)[C@H](C)NC(=O)[C@@H]3CCCN3C(=O)[C@H](CC(N)=O)NC(=O)[C@H](CCCNC(=N)N)NC(=O)[C@H](C)NC2=O)C(=O)N[C@@H](CCCNC(=N)N)C(=O)N[C@@H](Cc2c[nH]cn2)C(=O)N[C@@H](CC(N)=O)C(=O)N[C@@H](Cc2c[nH]cn2)C(=O)N2CCC[C@H]2C(=O)N1)C(N)=O [gAusIA] (H-SCCARNPACRHNHPCV-NH2; disulfide 2-9, 3-15) | 47 ± 6.7 µM |
| CC[C@H](C)[C@@H]1NC(=O)[C@@H]2CSSC[C@H](NC(=O)CN)C(=O)N[C@@H](CSSC[C@@H](C(N)=O)NC(=O)[C@H](CC(C)C)NC(=O)[C@H](CC(=O)O)NC(=O)[C@@H]3CCCN3C(=O)[C@H](CC(N)=O)NC(=O)[C@H](CC(N)=O)NC(=O)[C@H](CC(C)C)NC1=O)C(=O)N[C@@H](CO)C(=O)N[C@@H](CCCNC(=N)N)C(=O)N1CCC[C@H]1C(=O)N1CCC[C@H]1C(=O)N2 [gTxIA [A10L], reference compound] (H-GCCSRPPCILNNPDLC-NH2; disulfide 2-8, 3-16) | 0.5 ± 0.036 µM |

Source: PMC8578332 (Scientific Reports, 2021)
